Read-outs that look alike come from different tables or passages of the source.
Experiments:
Experiment in all cases: microbe, parasite or virus in culture
Format in all cases: cell-based
[1] = test system: clinically isolated HIV strain C (C-2-001)
Method: (§1) The compounds were tested in a cellular assay using the MT4-LTR-EGFP cells for anti-viral activity. […] Because of the increasing emergence of drug resistant HIV strains, the present compounds were tested for their potency against clinically isolated HIV strains harboring several mutations. […] The viral strains A, B, C and D contain mutations as indicated below in Table 3.
(§2) The cellular assay was performed according to the following procedure. HIV- or mock-infected MT4-LTR-EGFP cells were incubated for three days in the presence of various concentrations of the compounds according to the invention. Upon infection, the viral tat protein activates the GFP reporter. At the end of the incubation period, the GFP signal was measured. […] The inhibitory activity of the compound was monitored on the virus-infected cells and was expressed as EC50. These values represent the amount of the compound required to protect 50% of the cells from virus infection.

[2] = test system: clinically isolated HIV strain B (B-2-001)
Method: as §1, §2

[3] = test system: clinically isolated HIV strain D (D-2-001)
Method: as §1, §2

[4] = test system: wild type laboratory HIV strain (WT IIIB-2-001); settings: Human immunodeficiency virus 1, IIIB, 72 h, read-out: Virus Strains WT-IIIB-2-001
Method: as §1, §2

[5] = test system: clinically isolated HIV strain A (A-2-001)
Method: as §1, §2

[6] = Human immunodeficiency virus 1, 72 h, read-out: Virus Strains C-2-001
[7] = Human immunodeficiency virus 1, 72 h, read-out: Virus Strains B-2-001
[8] = Human immunodeficiency virus 1, 72 h, read-out: Virus Strains D-2-001
[9] = Human immunodeficiency virus 1, 72 h, read-out: Virus Strains A-2-001

Row | SMILES | EC50 [1, 6] [nM] | EC50 [2, 7] [nM] | EC50 [3, 8] [nM] | EC50 [4] [nM] | EC50 [5, 9] [nM] | EC50 ([1]; Human immunodeficiency virus 1, read-out: pEC50-C (converted)) [nM] | EC50 ([2]; Human immunodeficiency virus 1, read-out: pEC50-B (converted)) [nM] | EC50 ([3]; Human immunodeficiency virus 1, read-out: pEC50-D (converted)) [nM] | EC50 ([5]; Human immunodeficiency virus 1, read-out: pEC50-A (converted)) [nM]
1 | CC(C)CN(C[C@@H](O)[C@H](Cc1ccccc1)NC(=O)O[C@H]1CO[C@H]2OCC[C@H]21)S(=O)(=O)c1ccc(N)c(N[C@H]2CCN(C3CCCC3)C2)c1 (stereo in doubt) [Compound 79, (3-{[4-amino-3-(1-cyclopentyl-pyrrolidin-3-ylamino)-benzene-sulfonyl]-isobutyl-amino}-1-benzyl-2-hydroxy-propyl)-carbamic acid hexahydrofuro[2,3-b]furan-3-yl ester] | 50.1 | 275 | 38.9 | 66.1 | 20.9 | – | – | – | –
2 | CC(C)CN1CC[C@H](Nc2cc(S(=O)(=O)N(CC(C)C)C[C@@H](O)[C@H](Cc3ccccc3)NC(=O)O[C@H]3CO[C@H]4OCC[C@H]43)ccc2N)C1 (stereo in doubt) [Compound 83, (3-{[4-amino-3-(1-isobutyl-pyrrolidin-3-ylamino)-benzenesulfonyl]-isobutyl-amino}-1-benzyl-2-hydroxy-propyl)-carbamic acid hexahydro-furo-[2,3-b]furan-3-yl ester] | 16.6 | 129 | 75.9 | 26.3 | 3.39 | – | – | – | –
3 | CC(C)CN(C[C@@H](O)[C@H](Cc1ccccc1)NC(=O)O[C@H]1CO[C@H]2OCC[C@H]21)S(=O)(=O)c1ccc(N)cc1 [TMC 114, (3R,3aS,6aR)-hexahydrofuro[2,3-b]furan-3-yl N-[(1S,2R)-1-benzyl-2-hydroxy-3-(N 1-isobutylsulfanilamido)propyl]carbamate, reference compound] | – | – | – | – | – | 89.1 | 851 | 4790 | 7.94

Source: US7803836B2, “Aminophenylsulfonamide derivatives as HIV protease inhibitor” (priority 2005, dated 2010)
